The results in this text go back to ChEMBL document CHEMBL4024724, “Synthesis of new 3-(2-mercapto-4-oxo-4H-quinazolin-3-yl)-benzenesulfonamides with strong inhibition properties against the tumor associated carbonic anhydrases IX and XII” (Bioorg Med Chem, 2017).

Usually Ki stands for the equilibrium dissociation constant of an inhibitor or competing ligand from its target.

The assay addresses Carbonic anhydrase 9 (Homo sapiens, UniProt Q16790). Briefly: Inhibition of recombinant human carbonic anhydrase 9 incubated for 15 mins prior to testing by stopped flow CO2 hydration assay.
As for `NS(=O)(=O)c1cccc(-n2c(S)nc3c(Br)cccc3c2=O)c1`, the Ki came out at 0.004 µM.
Regarding `Cc1ccc2nc(S)n(-c3cccc(S(N)(=O)=O)c3)c(=O)c2c1`, the Ki was determined as 0.0589 µM.
As to `NS(=O)(=O)c1cccc(-n2c(S)nc3cc(F)ccc3c2=O)c1`, the Ki was found to be 0.0027 µM.
Consider `NS(=O)(=O)c1cccc(-n2c(S)nc3ccccc3c2=O)c1`, for which the Ki was 0.0761 µM.
Take `COc1cccc2c(=O)n(-c3cccc(S(N)(=O)=O)c3)c(S)nc12`: the Ki is 0.0156 µM.
For `NS(=O)(=O)c1cccc(-n2c(S)nc3c(Cl)cccc3c2=O)c1`, the Ki was 0.0095 µM.
In the case of `NS(=O)(=O)c1cccc(-n2c(S)nc3cc(Cl)ccc3c2=O)c1`, the Ki stood at 0.0154 µM.
With `NS(=O)(=O)c1cccc(-n2c(S)nc3ccc(I)cc3c2=O)c1`, the Ki is 0.0015 µM.
As for `Cc1cccc2c(=O)n(-c3cccc(S(N)(=O)=O)c3)c(S)nc12`, the Ki was 0.0252 µM.
With `COc1cc2nc(S)n(-c3cccc(S(N)(=O)=O)c3)c(=O)c2cc1OC`, the Ki came to 0.0198 µM.
On to `NS(=O)(=O)c1cccc(-n2c(S)nc3cc(Br)ccc3c2=O)c1`, for which the Ki was 0.0168 µM.
For the compound `COc1cc2c(=O)n(-c3cccc(S(N)(=O)=O)c3)c(S)nc2c(OC)c1OC`, the Ki was found to be 0.0201 µM.
For the compound `COc1ccc2nc(S)n(-c3cccc(S(N)(=O)=O)c3)c(=O)c2c1`, the Ki was 0.013 µM.
Consider `Cc1cc2nc(S)n(-c3cccc(S(N)(=O)=O)c3)c(=O)c2cc1C`, for which the Ki was found to be 0.0345 µM.
For the compound `NS(=O)(=O)c1cccc(-n2c(S)nc3ccc(Cl)cc3c2=O)c1`, the Ki was found to be 0.0451 µM.
Regarding `COc1ccc2c(=O)n(-c3cccc(S(N)(=O)=O)c3)c(S)nc2c1`, the Ki worked out at 0.025 µM.
As for `NS(=O)(=O)c1cccc(-n2c(S)nc3ccc(F)cc3c2=O)c1`, the Ki was 0.0044 µM.
